What all share (format): cell-based
The test system of series [1] is human red blood cells (hRBC). The experiment in a line: Hemolysis. The settings on record: red cells of human, 1 h, 200. The method in brief:
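Washed fresh human RBC (20% v/v) incubated with peptide at 200 μg/mL for 1 h at 37° C with shaking. Supernatant OD540 measured after dilution, blank corrected; percent hemolysis = OD540 peptide / OD540 of 2% Triton X-100 lysis × 100, PBS with 10% water as 0%.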

Series [2] concerns Acinetobacter baumannii DSM 30008. The settings on record: DSM 30008. Here is the method:
(§1) The in vitro antimicrobial activities of the peptides were determined in 96-well plates (Greiner, polystyrene) by the standard CLSI broth microdilution method (Clinical and Laboratory Standards Institute 2014. Performance standards for antimicrobial susceptibility testing, 24th informational supplement. Approved standard CLSI M100-S24; Clinical and Laboratory Standards Institute, Wayne, Pa.). The following microorganisms were used to determine antibiotic activity of the peptides: Escherichia coli ATCC 25922, Klebsiella pneumoniae SSI #3010^a), Acinetobacter baumannii DSM 30008, Pseudomonas aeruginosa ATCC 27853 and the clinical isolates Escherichia coli 926415^b), Klebsiella pneumoniae 968733^b), Acinetobacter baumannii 872842^b), Enterobacter cloacae 848840^b) and Escherichia coli MCR-1 Af45^c). Before preparation of inocula, Escherichia coli MCR-1 Af45 was subcultured on Mueller-Hinton II (MH-cation adjusted) agar containing 2 μg/mL colistin. ^a) Obtained from Statens Serum Institut (SSI), Copenhagen, Denmark^b) Obtained from International Health Management Associates, Inc. (IHMA Europe Sàrl), Epalinges, Switzerland^c) Obtained from Prof. Patrice Nordmann, University of Fribourg, Fribourg, Switzerland
(§2) Inocula of the microorganisms were diluted into Mueller-Hinton II (MH-cation adjusted) broth and compared with a 0.5 McFarland standard to give appr. 10^6 colony forming units (CFU)/mL. Aliquots (90 μL) of inoculum were added to 10 μL of MH-II broth+P-80 (Polysorbate 80, 0.002% final concentration, v/v) containing the peptide in serial two-fold dilutions. Antimicrobial activities of the peptides were expressed as the minimal inhibitory concentration (MIC) in μg/mL at which no visible growth was observed after 18-20 hours of incubation at 35° C.

Another series relates to Escherichia coli 926415. The settings on record: 926415. The procedure: as §1, §2
Series [3] has as its system Acinetobacter baumannii 872842. The settings on record: 872842. The procedure:
as §1, §2

Series [4] deals with Klebsiella pneumoniae 968733. Particulars: 968733. Here is the method: as §1, §2
In series [5] the test system is Pseudomonas aeruginosa ATCC 27853. Particulars: ATCC 27853. Here is the method: as §1, §2
In series [6] the test system is Enterobacter cloacae 848840. The settings on record: 848840. The procedure:
as §1, §2

Series [7] deals with Klebsiella pneumoniae SSI #3010. The settings on record: SSI #3010. Here is the method: as §1, §2
In series [8] the test system is Escherichia coli ATCC 25922. The settings on record: ATCC 25922. Here is the method:
as §1, §2

In brackets after ≈: the same amount, converted by molar mass. Where a SMILES comes first, the peptide text is derived from it. Bridges are numbered along the chain shown (N, C = ends). Roman numbers before positions name the chains, in order. [ ]: non-standard residue; d: D form. Thr(ol) = C[C@@H](O)[C@H](N)CO; Pen = CC(C)(S)[C@H](N)C(=O)O; Tle = CC(C)(C)[C@H](N)C(=O)O; NMeV = CN[C@H](C(=O)O)C(C)C; Hiv = CC(C)[C@H](O)C(=O)O; dDab = NCC[C@@H](N)C(=O)O; hSer = N[C@@H](CCO)C(=O)O; Orn = NCCC[C@H](N)C(=O)O; Dab = NCC[C@H](N)C(=O)O; Dap = NC[C@H](N)C(=O)O

In general, MIC refers to the lowest concentration that inhibits growth of the organism. Lower therefore signals greater potency.

With `CC(C)C[C@@H]1NC(=O)[C@@H](CC(C)C)NC(=O)[C@H](CCN)NC(=O)[C@@H](NC(=O)[C@H](CCN)NC(=O)[C@@H](NC(=O)[C@H](CCN)NC(=O)CC[C@@H]2NC(=O)[C@H](CCN)NC(=O)[C@H](Cc3ccc(O)cc3)NC(=O)[C@@H](NC(=O)[C@@H](O)C(C)C)CSSC(C)(C)[C@@H](C(=O)N[C@H](CO)[C@@H](C)O)NC(=O)[C@H](C(C)(C)C)NC(=O)[C@H](CO)NC(=O)[C@H](Cc3c[nH]c4ccccc34)NC(=O)[C@H](CCO)NC(=O)[C@@H](CCN)NC2=O)[C@@H](C)O)CCNC(=O)[C@H]([C@@H](C)O)NC(=O)[C@H](CCN)NC(=O)[C@H](CCN)NC1=O` [Ex. 85] (I: H-[Hiv]CY[Dab]E[dDab][hSer]WS[Tle][Pen][Thr(ol)] / II: [Dab]T[Dab][Dab][Dab][dL]L[Dab][Dab]T; disulfide I:2-I:11; amide I:5-II:N; lactam II:4-II:C), the “Hemolysis at 200 μg/mL” value in series [1] worked out at 1%. The MIC stood at 0.25 µg/mL (≈ 0.103 µM) in series [2]; 0.25 µg/mL (≈ 0.103 µM) with Escherichia coli 926415; 0.25 µg/mL (≈ 0.103 µM) in series [3]; 0.25 µg/mL (≈ 0.103 µM) in [4]; 0.25 µg/mL (≈ 0.103 µM) in series [5]; 0.125 µg/mL (≈ 0.0515 µM) in series [6]. Besides, the results for the MIC in [7] and in [8] were 0.125 µg/mL (≈ 0.0515 µM) and 0.0625 µg/mL (≈ 0.0257 µM), respectively.
In the case of `CC(=O)N[C@H](C(=O)N[C@H]1CSSC[C@@H](C(=O)N[C@@H](CO)C(N)=O)NC(=O)[C@H](C(C)(C)C)NC(=O)[C@H](CO)NC(=O)[C@H](Cc2c[nH]c3ccccc23)NC(=O)[C@H]([C@@H](C)O)NC(=O)[C@@H](CCN)NC(=O)[C@H](CCC(=O)N[C@@H](CCN)C(=O)N[C@H](C(=O)N[C@@H](CCN)C(=O)N[C@H]2CCNC(=O)[C@H]([C@@H](C)O)NC(=O)[C@H](CCN)NC(=O)[C@H](CCN)NC(=O)[C@H](CC(C)C)NC(=O)[C@@H](CC(C)C)NC(=O)[C@H](CCN)NC2=O)[C@@H](C)O)NC(=O)[C@H](CCN)NC(=O)[C@H](Cc2ccc(O)cc2)NC1=O)C(C)C` [Ex. 44] (I: Ac-VCY[Dab]E[dDab]TWS[Tle]CS-NH2 / II: [Dab]T[Dab][Dab][Dab][dL]L[Dab][Dab]T; disulfide I:2-I:11; amide I:5-II:N; lactam II:4-II:C), the “Hemolysis at 200 μg/mL” value in series [1] was under 1%. The minimal inhibitory concentration (MIC) was 0.125 µg/mL (≈ 0.0512 µM) in [2]; 0.125 µg/mL (≈ 0.0512 µM) against Escherichia coli 926415; 0.125 µg/mL (≈ 0.0512 µM) in [3]; 0.25 µg/mL (≈ 0.102 µM) in series [4]; 0.125 µg/mL (≈ 0.0512 µM) in [5]; 0.125 µg/mL (≈ 0.0512 µM) in [6]. Moreover, the MIC in [7] was 0.125 µg/mL (≈ 0.0512 µM); in series [8], 0.0625 µg/mL (≈ 0.0256 µM).
`CC(=O)N[C@@H](CCC(=O)O)C(=O)N[C@H](C(=O)N[C@H](C(=O)N[C@@H](Cc1ccc(O)cc1)C(=O)N[C@@H](CN)C(=O)N[C@@H](CCC(=O)N[C@@H](CCN)C(=O)N[C@H](C(=O)N[C@@H](CN)C(=O)N[C@H]1CCNC(=O)[C@H]([C@@H](C)O)NC(=O)[C@H](CCN)NC(=O)[C@H](CCN)NC(=O)[C@H](CC(C)C)NC(=O)[C@@H](CC(C)C)NC(=O)[C@H](CCN)NC1=O)[C@@H](C)O)C(=O)N[C@H](CCN)C(=O)N[C@@H](CCN)C(=O)N[C@@H](Cc1c[nH]c2ccccc12)C(=O)N[C@@H](CO)C(=O)N[C@H](C(=O)N[C@@H](C)C(=O)N[C@@H](CO)C(=O)N[C@@H](CCN)C(N)=O)C(C)(C)C)[C@@H](C)O)C(C)C` [Ex. 247] (I: Ac-EVTY[Dap]E[dDab][Dab]WS[Tle]AS[Dab]-NH2 / II: [Dab]T[Dap][Dab][Dab][dL]L[Dab][Dab]T; amide I:6-II:N; lactam II:4-II:C): the “Hemolysis at 200 μg/mL” value in [1] was under 1%. In addition, the MIC in [2] was 0.125 µg/mL (≈ 0.0479 µM); in the series with Escherichia coli 926415 it was 0.5 µg/mL (≈ 0.192 µM); in series [3] it was 0.5 µg/mL (≈ 0.192 µM); in [4], 8 µg/mL (≈ 3.07 µM); in series [5], 0.25 µg/mL (≈ 0.0958 µM); in series [6], 0.25 µg/mL (≈ 0.0958 µM). The results for the MIC in [7] and in series [8] were 0.25 µg/mL (≈ 0.0958 µM) and 0.125 µg/mL (≈ 0.0479 µM), respectively.
Consider `CN[C@H](C(=O)N[C@H](C(=O)N[C@@H](Cc1ccc(O)cc1)C(=O)N[C@H]1CSSC[C@@H](C(=O)N[C@H](C(=O)N[C@@H](C)C(=O)N[C@@H](CO)C(N)=O)C(C)(C)C)NC(=O)[C@H](Cc2c[nH]c3ccccc23)NC(=O)[C@H](CCO)NC(=O)[C@@H](CCN)NC(=O)[C@H](CCC(=O)N[C@@H](CCN)C(=O)N[C@H](C(=O)N[C@@H](CCN)C(=O)N[C@H]2CCNC(=O)[C@H]([C@@H](C)O)NC(=O)[C@H](CCN)NC(=O)[C@H](CCN)NC(=O)[C@H](CC(C)C)NC(=O)[C@@H](CC(C)C)NC(=O)[C@H](CCN)NC2=O)[C@@H](C)O)NC1=O)[C@@H](C)O)C(C)C` [Ex. 185] (I: H-[NMeV]TYCE[dDab][hSer]WC[Tle]AS-NH2 / II: [Dab]T[Dab][Dab][Dab][dL]L[Dab][Dab]T; disulfide I:4-I:9; amide I:5-II:N; lactam II:4-II:C), for which the “Hemolysis at 200 μg/mL” value in series [1] is reported as under 1%. Besides, the MIC in series [2] is 0.125 µg/mL (≈ 0.0521 µM); in the series with Escherichia coli 926415, 0.25 µg/mL (≈ 0.104 µM); in [3], 0.25 µg/mL (≈ 0.104 µM); in series [4], 1 µg/mL (≈ 0.417 µM); in [5] it was 0.125 µg/mL (≈ 0.0521 µM); in series [6], 0.25 µg/mL (≈ 0.104 µM). Moreover, the MIC in series [7] and in series [8] was 0.125 µg/mL (≈ 0.0521 µM) throughout.
Consider `CC(C)C[C@@H]1NC(=O)[C@@H](CC(C)C)NC(=O)[C@H](CCN)NC(=O)[C@@H](NC(=O)[C@H](CN)NC(=O)[C@@H](NC(=O)[C@H](CCN)NC(=O)CC[C@@H]2NC(=O)[C@H](CCCN)NC(=O)[C@@H](NC(=O)[C@H](Cc3ccc(O)cc3)NC(=O)[C@@H](NC(=O)[C@@H](O)C(C)C)[C@@H](C)O)CSSC[C@@H](C(=O)N[C@H](C(=O)N[C@@H](C)C(=O)N[C@H](CO)[C@@H](C)O)C(C)(C)C)NC(=O)[C@H](Cc3c[nH]c4ccccc34)NC(=O)[C@H]([C@@H](C)O)NC2=O)[C@@H](C)O)CCNC(=O)[C@H]([C@@H](C)O)NC(=O)[C@H](CCN)NC(=O)[C@H](CCN)NC1=O` [Ex. 209] (I: H-[Hiv]TYC[Orn]ETWC[Tle]A[Thr(ol)] / II: [Dab]T[Dap][Dab][Dab][dL]L[Dab][Dab]T; disulfide I:4-I:9; amide I:6-II:N; lactam II:4-II:C), for which the “Hemolysis at 200 μg/mL” value in [1] is listed as under 1%. The MIC came out at 0.25 µg/mL (≈ 0.105 µM) in series [2]; 1 µg/mL (≈ 0.419 µM) against Escherichia coli 926415; 2 µg/mL (≈ 0.838 µM) in [3]; 4 µg/mL (≈ 1.68 µM) in series [4]; 0.5 µg/mL (≈ 0.21 µM) in series [5]; 0.25 µg/mL (≈ 0.105 µM) in series [7]. Further, the MIC in series [8] amounted to 0.125 µg/mL (≈ 0.0524 µM).
`CC(C)C[C@@H]1NC(=O)[C@@H](CC(C)C)NC(=O)[C@H](CCN)NC(=O)[C@@H](NC(=O)[C@H](CN)NC(=O)[C@@H](NC(=O)[C@H](CCN)NC(=O)CC[C@H]2NC(=O)CNC(=O)[C@H](CCCN)NC(=O)[C@H](CCN)NC(=O)[C@H](Cc3ccc(O)cc3)NC(=O)[C@@H](NC(=O)[C@@H](O)C(C)C)CSSC[C@@H](C(=O)N[C@H](C(N)=O)[C@@H](C)O)NC(=O)[C@H](C(C)(C)C)NC(=O)[C@H](CO)NC(=O)[C@H](Cc3c[nH]c4ccccc34)NC2=O)[C@@H](C)O)CCNC(=O)[C@H]([C@@H](C)O)NC(=O)[C@H](CCN)NC(=O)[C@H](CCN)NC1=O` [Ex. 170] (I: H-[Hiv]CY[Dab][Orn]G[dE]WS[Tle]CT-NH2 / II: [Dab]T[Dap][Dab][Dab][dL]L[Dab][Dab]T; disulfide I:2-I:11; amide I:7-II:N; lactam II:4-II:C): the “Hemolysis at 200 μg/mL” value in [1] is on record as under 1%. For the same compound, the MIC in series [2] amounted to 0.25 µg/mL (≈ 0.105 µM); against Escherichia coli 926415, 0.5 µg/mL (≈ 0.211 µM); in [3], 2 µg/mL (≈ 0.844 µM); in [4] it was 2 µg/mL (≈ 0.844 µM); in [5], 0.5 µg/mL (≈ 0.211 µM); in series [7], 0.5 µg/mL (≈ 0.211 µM). The compound also yielded an MIC in series [8] of 0.125 µg/mL (≈ 0.0527 µM).

The record behind these values is patent US11629171B2, “Beta-hairpin peptidomimetics” (POLYPHOR AG, priority 2017, dated 2023).
